Experimental data published in article PMC6409468, “Isolation and identification of angiotensin I-converting enzyme inhibitory peptides derived from thermolysin-injected beef M. longissimus” (Asian-Australasian Journal of Animal Sciences, 2018).
Residues, ends and D or L forms follow the SMILES beside them. No end group written: not given here.

Target: T1, ACE (from rabbit lung) (Oryctolagus cuniculus, UniProt P12822)
T1 construct: ACE (peptidyldipeptide hydrolase from rabbit lung acetone extract); purchased Sigma; host or cells: rabbit lung (acetone extract)
T1 sequence (P12822 34-1310): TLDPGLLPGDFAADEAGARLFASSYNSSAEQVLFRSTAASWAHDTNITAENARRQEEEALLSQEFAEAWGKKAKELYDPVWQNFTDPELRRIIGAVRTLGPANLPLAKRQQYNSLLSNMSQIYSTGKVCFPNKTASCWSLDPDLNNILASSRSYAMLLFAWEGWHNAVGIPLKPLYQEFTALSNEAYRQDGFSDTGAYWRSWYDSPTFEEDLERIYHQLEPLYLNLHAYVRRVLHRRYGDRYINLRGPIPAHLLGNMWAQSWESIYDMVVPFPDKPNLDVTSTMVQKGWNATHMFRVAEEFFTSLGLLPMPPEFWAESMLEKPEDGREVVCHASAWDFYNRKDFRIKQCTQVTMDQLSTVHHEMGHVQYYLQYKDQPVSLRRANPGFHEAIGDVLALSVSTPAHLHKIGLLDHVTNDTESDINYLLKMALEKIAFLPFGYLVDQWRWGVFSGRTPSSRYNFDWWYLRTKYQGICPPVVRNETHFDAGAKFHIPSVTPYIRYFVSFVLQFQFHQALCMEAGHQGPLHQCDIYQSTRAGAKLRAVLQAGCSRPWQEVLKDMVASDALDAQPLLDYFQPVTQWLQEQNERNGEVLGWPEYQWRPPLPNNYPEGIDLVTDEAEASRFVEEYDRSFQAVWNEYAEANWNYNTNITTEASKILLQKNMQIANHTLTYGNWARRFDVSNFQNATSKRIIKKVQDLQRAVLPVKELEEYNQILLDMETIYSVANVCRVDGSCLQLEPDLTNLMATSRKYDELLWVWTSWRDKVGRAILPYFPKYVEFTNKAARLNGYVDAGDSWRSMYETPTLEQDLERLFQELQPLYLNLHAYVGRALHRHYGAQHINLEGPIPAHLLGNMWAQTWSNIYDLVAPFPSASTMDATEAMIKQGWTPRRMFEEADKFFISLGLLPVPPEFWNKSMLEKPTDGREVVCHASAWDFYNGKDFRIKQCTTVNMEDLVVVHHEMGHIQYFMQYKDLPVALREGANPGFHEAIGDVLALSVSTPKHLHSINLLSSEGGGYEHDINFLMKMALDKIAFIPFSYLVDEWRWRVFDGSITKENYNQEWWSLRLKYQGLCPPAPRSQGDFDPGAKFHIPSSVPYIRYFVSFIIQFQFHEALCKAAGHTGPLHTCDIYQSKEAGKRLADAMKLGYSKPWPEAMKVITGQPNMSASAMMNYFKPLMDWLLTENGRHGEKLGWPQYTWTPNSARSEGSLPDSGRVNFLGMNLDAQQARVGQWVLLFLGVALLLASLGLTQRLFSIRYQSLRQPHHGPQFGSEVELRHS
Test: ACE inhibitory activity, spectrophotometric method (HHL substrate, hippuric acid at 228 nm)
Format: biochemical
Settings: chemically synthesized peptides
Procedure: ACE inhibitory activity determination was achieved using the spectrophotometric method described by Cushman and Cheung. For each assay, 100 μL of HHL (12.5 mM in 0.05 M sodium borate buffer) was incubated at 37°C for 5 min. After incubation, 50 μL of bovine peptide extracts and 150 μL of ACE (peptidyldipeptide hydrolase from rabbit lung acetone extract) were added and the mixture incubated for 1 h. The enzymatic reaction was stopped by adding 250 μL of 0.5 N HCl. The hippuric acid generated by the action of the angiotensin-converting enzyme on HHL was extracted from the acidified solution into 1 mL ethyl acetate by vortex mixing for 15 s. This was centrifuged at 3,290×g for 10 min at 4°C, and a 0.7 mL aliquot of each ethyl acetate layer was transferred to clean tubes and evaporated by heating at 95°C for 20 min in a water bath. The hippuric acid was redissolved in 3 mL of 1 M NaCl, and the amount formed was determined by absorbance at 228 nm. The IC50 value, defined as the concentration of a peptide that inhibits 50% of the ACE activity, was determined by measuring the ACE inhibitory activity and the peptide contents of each of the extracts after regression analysis. ACE inhibitory activity (%) was determined using the equation:
ACE inhibitory activity (%)=[1-(S-SC)/(B-BC)]×100
where S and B are optical density (OD) values for the sample and blank, respectively, and SC and BC are the OD values for the sample control and blank, respectively.

Point of comparison: `CC(C)C[C@H](N)C(=O)N[C@@H](CO)C(=O)N[C@@H](Cc1c[nH]c2ccccc12)C(=O)O` [Leu-Ser-Trp] (H-Leu-Ser-Trp-OH), IC50 0.89 mM. Against it:
- CC(C)[C@H](N)C(=O)N[C@@H](CO)C(=O)N[C@@H](CO)C(=O)N[C@H](C(=O)O)C(C)C [Val-Ser-Ser-Val] (H-VSSV-OH) — 9.5-fold higher, 8.49 mM
- N[C@@H](Cc1ccc(O)cc1)C(=O)NCC(=O)O [Tyr-Gly] — 14-fold higher, 12.7 mM
- LWHHT [Leu-Trp-His- His-Thr] — 5.9-fold higher, 5.21 mM
- CSCC[C@H](N)C(=O)N[C@@H](C)C(=O)N[C@@H](CC(=O)O)C(=O)N[C@@H](C)C(=O)O [Met-Ala-Asp-Ala] (H-MADA-OH) — 6.7-fold higher, 5.92 mM
- NC(=O)C[C@H](NC(=O)[C@H](Cc1ccccc1)NC(=O)[C@@H](N)Cc1ccc(O)cc1)C(=O)N[C@@H](CCC(=O)O)C(=O)O [Tyr-Phe-Asn-Glu] (H-YFNE-OH) — 8.6-fold higher, 7.62 mM
- N[C@@H](Cc1ccccc1)C(=O)NCC(=O)N[C@@H](Cc1ccc(O)cc1)C(=O)O [Phe-Gly-Tyr] (H-Phe-Gly-Tyr-OH) — 3-fold higher, 2.69 mM
- N[C@@H](Cc1ccc(O)cc1)C(=O)N[C@@H](Cc1ccc(O)cc1)C(=O)O [Tyr-Tyr] (H-Tyr-Tyr-OH) — 9.7-fold higher, 8.6 mM
- N=C(N)NCCC[C@H](NC(=O)[C@@H](N)Cc1ccc(O)cc1)C(=O)N[C@@H](CCC(N)=O)C(=O)O [Tyr-Arg-Gln] (H-Tyr-Arg-Gln-OH) — 3.5-fold higher, 3.09 mM
- QPSGSQ [Gln-Pro-Ser-Gly-Ser-Gln] — 9.9-fold higher, 8.78 mM
